Results published in patent US11479587B2, “Cationic intrinsically disordered antimicrobial peptides” (priority 2016, dated 2022).
Converted amounts (≈) assume the structure as drawn. Non-standard residues stand in square brackets, D forms with d. Residues, ends and D or L forms follow the SMILES beside them. *: point of attachment. Palmitoyl = CCCCCCCCCCCCCCCC(=O)*; dOrn = NCCC[C@@H](N)C(=O)O

What was measured:
[1] = Cytotoxicity (resazurin) assay
Procedure: For the cytotoxicity (resazurin) assay, HEK293 cells were counted manually in a Neubauer haemocytometer and plated at a density of 4000 cells/well into each well of the 384-well plates containing the 25×(2 μl) concentrated compounds. The medium used was Dulbecco's modified eagle medium (DMEM) supplemented with 10% foetal bovine serum (FBS). Cells were incubated together with the compounds for 20 h at 37° C., 5% CO2. To measure cytotoxicity, 5 μl (equals 100 μM final) resazurin was added to each well after incubation, and incubated for further 3 h at 37° C. with 5% CO2.
After final incubation fluorescence intensity was measured as F ex 560/10 nm, em 590/10 nm (F560/590) using a Tecan M1000 Pro monochromator plate reader. […] The concentration dependent percentage cytotoxicity was fitted to a dose response function (using Pipeline Pilot) and CC50 values determined.

Hemolysis assay = assay type: cell-based
Procedure: For the hemolysis assays EDTA-blood was centrifuged at 800×g for 10 min, and the plasma and buffy coat were removed. The erythrocytes were washed three times and resuspended in 5% PBS, pH 7.4. The cells were then incubated with end-over-end rotation for 1 h at 37° C. in the presence of different concentrations of peptides (0, 3, 10, 30, 60 μm). 0.1% Triton X-100 (Sigma-Aldrich) served as positive control. The samples were then centrifuged at 800×g for 10 min.
The absorbance of hemoglobin release was measured at 540 nm and is expressed as % of Triton X-100-induced hemolysis. These values of triplicates were plotted with Graph Pad Prism 4 as a dose response curve and the CC50 was determined.

[2] = test system: Candida albicans ATCC 24433; test: CFU-assay, Candida albicans-cidal activity; assay type: cell-based; conditions: pH 5.5, 1% TSB
Procedure: Thus, within the present invention, the antimicrobial activity is generally measured in nutrient deficient 10 mM sodium phosphate buffer pH 5.5, containing 0.25% glucose, using the CFU-assay according to Steinberg and Lehrer, 1997 (supra), unless otherwise indicated. The CFU-assay allows determination of the minimal bactericidal concentration (MBC, e.g., MBC90 and MBC100; i.e. the concentration of compound required to achieve a specified reduction in bacterial cell number (microbial death or killing)). […]
HR 1-17 affects C. albicans ATCC 24433 with highest activity at pH 5.5 in the absence of TSB in the medium (see Tables 12, 24). […] Furthermore, the substitution of any of the Arg residues by Gly leads to a dramatic reduction or loss of candidacidal activity (see Table 24).

P. aeruginosa ATCC 10145 = test: CFU-assay, P. aeruginosa-cidal activity; assay type: cell-based, Pseudomonas aeruginosa; conditions: pH 5.0, 0.25% glucose

| Compound | CC50 [1] | HC50 (Hemolysis assay) | MBC90 [2] | MBC100 [2] | MBC90 (P. aeruginosa ATCC 10145) | MBC100 (P. aeruginosa ATCC 10145) |
| --- | --- | --- | --- | --- | --- | --- |
| CCCCCCCCCCCCCCCC(=O)SC[C@H](NC(=O)[C@H](CCCNC(=N)N)NC(=O)CNC(=O)[C@H](CCCNC(=N)N)NC(=O)CNC(=O)[C@H](CCCNC(=N)N)NC(=O)CNC(=O)CNC(=O)[C@H](CCCNC(=N)N)NC(=O)CNC(=O)CNC(=O)[C@H](CCCNC(=N)N)NC(=O)[C@H](CCCNC(=N)N)NC(=O)CN)C(N)=O [C-Pal-GR13] (H-GRRGGRGGRGRGRC(Palmitoyl)-NH2) | > 32 µg/mL |  |  |  |  |  |
| CCCCCCCCCCCCCCCC(=O)NCC(=O)N[C@H](CCCCN)C(=O)NCC(=O)N[C@H](CCCCN)C(=O)O [D-Pal-GK4, D-Pal-GKDGKD] (HELM PEPTIDE1{[CCCCCCCCCCCCCCCC(=O)[*:2]].G.[dK].G.[dK]}$$$$V2.0) | > 32 µg/mL | 40 µg/mL |  |  |  |  |
| CCCCCCCCCCCCCCCC(=O)NCC(=O)N[C@H](CCCN)C(=O)NCC(=O)N[C@H](CCCN)C(=O)O [D-Pal-GOrn4, D-Pal-GODGOD] (Palmitoyl-G[dOrn]G[dOrn]-OH) | > 32 µg/mL | 55 µg/mL |  |  |  |  |
| CCCCCCCCCCCCCCCC(=O)NCC(=O)N[C@H](CCCNC(=N)N)C(=O)NCC(=O)N[C@H](CCCNC(=N)N)C(=O)O [D-Pal-GR4, Pal-GRDGRD] (HELM PEPTIDE1{[CCCCCCCCCCCCCCCC(=O)[*:2]].G.[dR].G.[dR]}$$$$V2.0) | > 32 µg/mL | 300 µg/mL |  |  |  |  |
| CCCCCCCCCCCCCCCC(=O)NCC(=O)N[C@H](CCCNC(=N)N)C(=O)N[C@H](CCCNC(=N)N)C(=O)NCC(=O)NCC(=O)N[C@H](CCCNC(=N)N)C(=O)NCC(=O)NCC(=O)N[C@H](CCCNC(=N)N)C(=O)O [D-Pal-GR9] (HELM PEPTIDE1{[CCCCCCCCCCCCCCCC(=O)[*:2]].G.[dR].[dR].G.G.[dR].G.G.[dR]}$$$$V2.0) | > 32 µg/mL | > 100 µg/mL |  |  |  |  |
| N=C(N)NCCC[C@H](NC(=O)[C@H](Cc1c[nH]cn1)NC(=O)[C@H](CO)NC(=O)[C@H](CCCNC(=N)N)NC(=O)[C@H](CCCNC(=N)N)NC(=O)[C@H](CS)NC(=O)[C@H](CCCNC(=N)N)NC(=O)[C@H](Cc1c[nH]cn1)NC(=O)[C@H](Cc1c[nH]cn1)NC(=O)[C@@H](N)CO)C(=O)N[C@@H](CS)C(=O)O [LCE3A50-60] (H-SHHRCRRSHRC-OH) | > 32 µg/mL |  |  |  |  |  |
| N=C(N)NCCC[C@H](NC(=O)[C@H](CC(=O)O)NC(=O)[C@H](CS)NC(=O)[C@H](CO)NC(=O)[C@H](CC(N)=O)NC(=O)[C@H](CO)NC(=O)[C@H](CCCNC(=N)N)NC(=O)[C@H](CCC(N)=O)NC(=O)[C@H](CCCNC(=N)N)NC(=O)[C@H](CCCNC(=N)N)NC(=O)[C@H](CS)NC(=O)[C@H](CCC(N)=O)NC(=O)[C@H](Cc1c[nH]cn1)NC(=O)[C@H](CO)NC(=O)[C@H](CCCNC(=N)N)NC(=O)[C@H](Cc1ccccc1)NC(=O)[C@H](Cc1c[nH]cn1)NC(=O)[C@H](CCCNC(=N)N)NC(=O)[C@H](Cc1c[nH]cn1)NC(=O)[C@H](Cc1c[nH]cn1)NC(=O)[C@@H](N)CO)C(=O)O [LCE3C55-75] (H-SHHRHFRSHQCRRQRSNSCDR-OH) | > 32 µg/mL | > 300 µg/mL |  |  |  |  |
| CCCCCCCCCCCCCC(=O)NCC(=O)N[C@@H](CCCNC(=N)N)C(=O)N[C@@H](Cc1c[nH]cn1)C(=O)NCC(=O)N[C@@H](CO)C(=O)NCC(=O)N[C@@H](CC(C)C)C(=O)NCC(=O)N[C@@H](Cc1c[nH]cn1)C(=O)N[C@@H](CO)C(=O)N[C@@H](CO)C(=O)N[C@@H](CO)C(=O)N[C@@H](Cc1c[nH]cn1)C(=O)NCC(=O)N[C@@H](CCC(N)=O)C(=O)N[C@@H](Cc1c[nH]cn1)C(=O)NCC(=O)N[C@@H](CO)C(=O)NCC(=O)N[C@@H](CO)C(=O)NCC(=O)N[C@@H](CCCNC(=N)N)C(=O)O [Myr-HR 1-18] (HELM PEPTIDE1{[CCCCCCCCCCCCCC(=O)[*:2]].G.R.H.G.S.G.L.G.H.S.S.S.H.G.Q.H.G.S.G.S.G.R}$$$$V2.0) | 32 µg/mL (≈ 13.9 µM) | > 300 µg/mL |  |  |  |  |
| CCCCCCCCCCCCCCCC(=O)NCC(=O)N[C@@H](CCCCN)C(=O)NCC(=O)N[C@@H](CCCCN)C(=O)O [Pal-GK4, Pal-GKGK] (HELM PEPTIDE1{[CCCCCCCCCCCCCCCC(=O)[*:2]].G.K.G.K}$$$$V2.0) | > 32 µg/mL | 50 µg/mL |  |  |  |  |
| CCCCCCCCCCCCCCCC(=O)NCC(=O)N[C@@H](CCCN)C(=O)NCC(=O)N[C@@H](CCCN)C(=O)O [Pal-GOrn4, Pal-GOGO] (HELM PEPTIDE1{[CCCCCCCCCCCCCCCC(=O)[*:2]].G.[Orn].G.[Orn]}$$$$V2.0) | > 32 µg/mL | 80 µg/mL |  |  |  |  |
| GGHGSGLGHSSSHGQHGSGSGRSSSRGPY (Modified peptide derived from human hornerin (HR 1-17 R2657G)) |  |  | >300 µg/mL | >300 µg/mL | 0.0375 µg/mL | 0.3 µg/mL |
| GRHGSGLGHSSSHGQHGSGSGGSSSRGPY (Modified peptide derived from human hornerin (HR 1-17 R2677G)) |  |  | 300 µg/mL | >300 µg/mL | 0.0375 µg/mL | 0.15 µg/mL |
